{"source": "PubChem BioAssay AID1259407", "about": "(Chemical Carcinogenesis Research Information System (CCRIS), 2018)", "system": "CCRIS mutagenicity, Ames/micronucleus/aberration tests", "assay": "CCRIS mutagenicity studies", "key": {"[1]": {"settings": "Test System: AMES SALMONELLA TYPHIMURIUM, Strain/Indicator: TA98, Metabolic Activation: NONE, Method: PREINCUBATION"}, "[2]": {"settings": "Test System: AMES SALMONELLA TYPHIMURIUM, Strain/Indicator: TA98, Metabolic Activation: RAT, LIVER, S-9, AROCLOR 1254, Method: PREINCUBATION"}, "[3]": {"settings": "Test System: AMES SALMONELLA TYPHIMURIUM, Strain/Indicator: TA100, Metabolic Activation: NONE, Method: PREINCUBATION"}, "[4]": {"settings": "Test System: AMES SALMONELLA TYPHIMURIUM, Strain/Indicator: TA100, Metabolic Activation: RAT, LIVER, S-9, AROCLOR 1254, Method: PREINCUBATION"}, "[5]": {"settings": "Test System: AMES SALMONELLA TYPHIMURIUM, Strain/Indicator: TA102, Metabolic Activation: NONE, Method: PREINCUBATION"}, "[6]": {"settings": "Test System: AMES SALMONELLA TYPHIMURIUM, Strain/Indicator: TA1535, Metabolic Activation: NONE, Method: PREINCUBATION"}, "[7]": {"settings": "Test System: AMES SALMONELLA TYPHIMURIUM, Strain/Indicator: TA1537, Metabolic Activation: NONE, Method: PREINCUBATION"}, "[8]": {"settings": "Test System: AMES SALMONELLA TYPHIMURIUM, Strain/Indicator: TA98, Metabolic Activation: NONE, Method: STANDARD PLATE"}, "[9]": {"settings": "Test System: AMES SALMONELLA TYPHIMURIUM, Strain/Indicator: TA100, Metabolic Activation: NONE, Method: STANDARD PLATE"}}, "note": "Active and inactive are the calls of the source. How the calls were made is not given here.", "data": [{"smiles": "COc1cc(C(C)=O)ccc1O", "values": [{"measurement": "mutagenic call", "setting": "Test System: AMES SALMONELLA TYPHIMURIUM, Strain/Indicator: TA97, Metabolic Activation: NONE, Method: PREINCUBATION", "value": "inactive; negative"}, {"measurement": "mutagenic call", "setting": "Test System: AMES SALMONELLA TYPHIMURIUM, Strain/Indicator: TA97, Metabolic Activation: RAT, LIVER, S-9, AROCLOR 1254, Method: PREINCUBATION", "value": "inactive; negative"}, {"measurement": "mutagenic call", "setting": "[1]", "value": "inactive; negative"}, {"measurement": "mutagenic call", "setting": "[2]", "value": "inactive; negative"}, {"measurement": "mutagenic call", "setting": "[3]", "value": "inactive; negative"}, {"measurement": "mutagenic call", "setting": "[4]", "value": "inactive; negative"}, {"measurement": "mutagenic call", "setting": "[5]", "value": "inactive; negative"}, {"measurement": "mutagenic call", "setting": "Test System: AMES SALMONELLA TYPHIMURIUM, Strain/Indicator: TA102, Metabolic Activation: RAT, LIVER, S-9, AROCLOR 1254, Method: PREINCUBATION", "value": "inactive; negative"}]}, {"smiles": "CC(C)(c1cc(Br)c(O)c(Br)c1)c1cc(Br)c(O)c(Br)c1", "values": [{"measurement": "mutagenic call", "setting": "Test System: AMES SALMONELLA TYPHIMURIUM, Strain/Indicator: TA98, Metabolic Activation: HAMSTER, LIVER, S-9, AROCLOR 1254 (10%), Method: PREINCUBATION", "value": "inactive; negative"}, {"measurement": "mutagenic call", "setting": "[1]", "value": "inactive; negative"}, {"measurement": "mutagenic call", "setting": "Test System: AMES SALMONELLA TYPHIMURIUM, Strain/Indicator: TA98, Metabolic Activation: RAT, LIVER, S-9, AROCLOR 1254 (10%), Method: PREINCUBATION", "value": "inactive; negative"}, {"measurement": "mutagenic call", "setting": "Test System: AMES SALMONELLA TYPHIMURIUM, Strain/Indicator: TA100, Metabolic Activation: HAMSTER, LIVER, S-9, AROCLOR 1254 (10%), Method: PREINCUBATION", "value": "inactive; negative"}, {"measurement": "mutagenic call", "setting": "[3]", "value": "inactive; negative"}, {"measurement": "mutagenic call", "setting": "Test System: AMES SALMONELLA TYPHIMURIUM, Strain/Indicator: TA100, Metabolic Activation: RAT, LIVER, S-9, AROCLOR 1254 (10%), Method: PREINCUBATION", "value": "inactive; negative"}, {"measurement": "mutagenic call", "setting": "Test System: AMES SALMONELLA TYPHIMURIUM, Strain/Indicator: TA1535, Metabolic Activation: HAMSTER, LIVER, S-9, AROCLOR 1254 (10%), Method: PREINCUBATION", "value": "inactive; negative"}, {"measurement": "mutagenic call", "setting": "[6]", "value": "inactive; negative"}, {"measurement": "mutagenic call", "setting": "Test System: AMES SALMONELLA TYPHIMURIUM, Strain/Indicator: TA1535, Metabolic Activation: RAT, LIVER, S-9, AROCLOR 1254 (10%), Method: PREINCUBATION", "value": "inactive; negative"}, {"measurement": "mutagenic call", "setting": "Test System: AMES SALMONELLA TYPHIMURIUM, Strain/Indicator: TA1537, Metabolic Activation: HAMSTER, LIVER, S-9, AROCLOR 1254 (10%), Method: PREINCUBATION", "value": "inactive; negative"}, {"measurement": "mutagenic call", "setting": "[7]", "value": "inactive; negative"}, {"measurement": "mutagenic call", "setting": "Test System: AMES SALMONELLA TYPHIMURIUM, Strain/Indicator: TA1537, Metabolic Activation: RAT, LIVER, S-9, AROCLOR 1254 (10%), Method: PREINCUBATION", "value": "inactive; negative"}]}, {"smiles": "C=CC(=O)OCC(C)(C)C", "values": [{"measurement": "mutagenic call", "setting": "[8]", "value": "inactive; negative"}, {"measurement": "mutagenic call", "setting": "Test System: AMES SALMONELLA TYPHIMURIUM, Strain/Indicator: TA98, Metabolic Activation: RAT, LIVER, S-9, AROCLOR 1254, Method: STANDARD PLATE", "value": "inactive; negative"}, {"measurement": "mutagenic call", "setting": "Test System: AMES SALMONELLA TYPHIMURIUM, Strain/Indicator: TA98, Metabolic Activation: RAT, LIVER, S-9, SODIUM PHENOBARBITAL, Method: STANDARD PLATE", "value": "inactive; negative"}, {"measurement": "mutagenic call", "setting": "[9]", "value": "inactive; negative"}, {"measurement": "mutagenic call", "setting": "Test System: AMES SALMONELLA TYPHIMURIUM, Strain/Indicator: TA100, Metabolic Activation: RAT, LIVER, S-9, AROCLOR 1254, Method: STANDARD PLATE", "value": "inactive; negative"}, {"measurement": "mutagenic call", "setting": "Test System: AMES SALMONELLA TYPHIMURIUM, Strain/Indicator: TA100, Metabolic Activation: RAT, LIVER, S-9, SODIUM PHENOBARBITAL, Method: STANDARD PLATE", "value": "inactive; negative"}, {"measurement": "mutagenic call", "setting": "Test System: AMES SALMONELLA TYPHIMURIUM, Strain/Indicator: TA1535, Metabolic Activation: NONE, Method: STANDARD PLATE", "value": "inactive; negative"}, {"measurement": "mutagenic call", "setting": "Test System: AMES SALMONELLA TYPHIMURIUM, Strain/Indicator: TA1535, Metabolic Activation: RAT, LIVER, S-9, AROCLOR 1254, Method: STANDARD PLATE", "value": "inactive; negative"}, {"measurement": "mutagenic call", "setting": "Test System: AMES SALMONELLA TYPHIMURIUM, Strain/Indicator: TA1535, Metabolic Activation: RAT, LIVER, S-9, SODIUM PHENOBARBITAL, Method: STANDARD PLATE", "value": "inactive; negative"}, {"measurement": "mutagenic call", "setting": "Test System: AMES SALMONELLA TYPHIMURIUM, Strain/Indicator: TA1537, Metabolic Activation: NONE, Method: STANDARD PLATE", "value": "inactive; negative"}, {"measurement": "mutagenic call", "setting": "Test System: AMES SALMONELLA TYPHIMURIUM, Strain/Indicator: TA1537, Metabolic Activation: RAT, LIVER, S-9, AROCLOR 1254, Method: STANDARD PLATE", "value": "inactive; negative"}, {"measurement": "mutagenic call", "setting": "Test System: AMES SALMONELLA TYPHIMURIUM, Strain/Indicator: TA1537, Metabolic Activation: RAT, LIVER, S-9, SODIUM PHENOBARBITAL, Method: STANDARD PLATE", "value": "inactive; negative"}, {"measurement": "mutagenic call", "setting": "Test System: AMES SALMONELLA TYPHIMURIUM, Strain/Indicator: TA1538, Metabolic Activation: NONE, Method: STANDARD PLATE", "value": "inactive; negative"}, {"measurement": "mutagenic call", "setting": "Test System: AMES SALMONELLA TYPHIMURIUM, Strain/Indicator: TA1538, Metabolic Activation: RAT, LIVER, S-9, AROCLOR 1254, Method: STANDARD PLATE", "value": "inactive; negative"}, {"measurement": "mutagenic call", "setting": "Test System: AMES SALMONELLA TYPHIMURIUM, Strain/Indicator: TA1538, Metabolic Activation: RAT, LIVER, S-9, SODIUM PHENOBARBITAL, Method: STANDARD PLATE", "value": "inactive; negative"}]}, {"smiles": "O=CCC=O", "values": [{"measurement": "mutagenic call", "setting": "End Point: IN VITRO CHROMOSOMAL ABERRATIONS, Test System: CHO CELLS, Metabolic Activation: RAT, LIVER, S-9, AROCLOR 1254", "value": "inactive; negative"}, {"measurement": "mutagenic call", "setting": "Test System: AMES SALMONELLA TYPHIMURIUM, Strain/Indicator: HISD3052, Metabolic Activation: NONE, Method: STANDARD PLATE", "value": "active; positive"}, {"measurement": "mutagenic call", "setting": "Test System: AMES SALMONELLA TYPHIMURIUM, Strain/Indicator: TA94, Metabolic Activation: NONE, Method: STANDARD PLATE", "value": "inactive; negative"}, {"measurement": "mutagenic call", "setting": "Test System: AMES SALMONELLA TYPHIMURIUM, Strain/Indicator: TA98, Metabolic Activation: HAMSTER, LIVER, S-9, AROCLOR 1254, Method: PREINCUBATION", "value": "inactive; negative"}, {"measurement": "mutagenic call", "setting": "[1]", "value": "inactive; negative"}, {"measurement": "mutagenic call", "setting": "[2]", "value": "inactive; negative"}, {"measurement": "mutagenic call", "setting": "Test System: AMES SALMONELLA TYPHIMURIUM, Strain/Indicator: TA100, Metabolic Activation: HAMSTER, LIVER, S-9, AROCLOR 1254, Method: PREINCUBATION", "value": "inactive; negative"}, {"measurement": "mutagenic call", "setting": "[3]", "value": "inactive; negative"}, {"measurement": "mutagenic call", "setting": "[4]", "value": "inactive; negative"}, {"measurement": "mutagenic call", "setting": "[5]", "value": "active; positive"}, {"measurement": "mutagenic call", "setting": "Test System: AMES SALMONELLA TYPHIMURIUM, Strain/Indicator: TA104, Metabolic Activation: NONE, Method: PREINCUBATION", "value": "active; positive"}, {"measurement": "mutagenic call", "setting": "Test System: AMES SALMONELLA TYPHIMURIUM, Strain/Indicator: TA1535, Metabolic Activation: HAMSTER, LIVER, S-9, AROCLOR 1254, Method: PREINCUBATION", "value": "inactive; negative"}, {"measurement": "mutagenic call", "setting": "[6]", "value": "inactive; negative"}, {"measurement": "mutagenic call", "setting": "Test System: AMES SALMONELLA TYPHIMURIUM, Strain/Indicator: TA1535, Metabolic Activation: RAT, LIVER, S-9, AROCLOR 1254, Method: PREINCUBATION", "value": "inactive; negative"}, {"measurement": "mutagenic call", "setting": "Test System: AMES SALMONELLA TYPHIMURIUM, Strain/Indicator: TA1537, Metabolic Activation: HAMSTER, LIVER, S-9, AROCLOR 1254, Method: PREINCUBATION", "value": "inactive; negative"}, {"measurement": "mutagenic call", "setting": "[7]", "value": "inactive; negative"}, {"measurement": "mutagenic call", "setting": "Test System: AMES SALMONELLA TYPHIMURIUM, Strain/Indicator: TA1537, Metabolic Activation: RAT, LIVER, S-9, AROCLOR 1254, Method: PREINCUBATION", "value": "inactive; negative"}, {"measurement": "mutagenic call", "setting": "Test System: MOUSE LYMPHOMA, Strain/Indicator: L5178Y (TK+/TK-), Metabolic Activation: NONE, Method: SUSPENSION/PLATE", "value": "active; positive"}]}, {"smiles": "CS(C)=O.[Cl-].[Cl-].[Pt+2].c1ccncc1", "values": [{"measurement": "mutagenic call", "setting": "Test System: AMES SALMONELLA TYPHIMURIUM, Strain/Indicator: TA92, Metabolic Activation: NONE, Method: STANDARD PLATE", "value": "inactive; negative"}, {"measurement": "mutagenic call", "setting": "[8]", "value": "inactive; negative"}, {"measurement": "mutagenic call", "setting": "[9]", "value": "inactive; negative"}, {"measurement": "mutagenic call", "setting": "Test System: AMES SALMONELLA TYPHIMURIUM, Strain/Indicator: TA2410, Metabolic Activation: NONE, Method: STANDARD PLATE", "value": "inactive; negative"}]}]}
